Measured values: ChEMBL document CHEMBL5154856, “Targeting the tumor microenvironment by an enzyme-responsive prodrug of tubulin destabilizer for triple-negative breast cancer therapy with high safety” (Eur J Med Chem, 2022)
Active and inactive are the calls of the source. The calls are words filed in the database; no cut-off is given here.

Experiments:
[1] = Toxicity in nude mouse xenografted with human MDA-MB-231 cells assessed as effect on body weight at 20 to 40 mg/kg, iv administered every 2 days for 14 days; type: organism-based; conditions: in vivo, 336 h, dose 20-40 mg/kg, time 14 day
[2] = Chemical stability of compound at pH 7.4 in bovine serum at 1 mg incubated for 48 hrs by HPLC analysis; type: ADME, cell-free; conditions: cattle, pH 7.4, 48 h
[3] = Stability of compound in phosphate buffer at pH 7.4 assessed as Escherichia coli beta-glucuronidase mediated compound cleavage at 1.2 mg measured after 30 mins by HPLC analysis; type: ADME; conditions: pH 7.4, 0.5 h
MDA-MB-231 [4] = test: Antiproliferative activity against human MDA-MB-231 cells assessed as inhibition of cell growth incubated for 48 hrs in absence of beta-glucuronidase by MTT assay; type: functional, cell-based; conditions: MDA-MB-231, 48 h
SK-OV-3 [5] = test: Antiproliferative activity against human SK-OV-3 cells assessed as inhibition of cell growth incubated for 48 hrs in absence of beta-glucuronidase by MTT assay; type: functional, cell-based; conditions: SK-OV-3, 48 h
MCF7 [6] = test: Antiproliferative activity against human MCF7 cells assessed as inhibition of cell growth incubated for 48 hrs in absence of beta-glucuronidase by MTT assay; type: functional, cell-based; conditions: MCF7, 48 h
HeLa = test: Antiproliferative activity against human HeLa cells assessed as inhibition of cell growth incubated for 48 hrs in presence of beta-glucuronidase by MTT assay; type: functional, cell-based
MDA-MB-231 [7] = test: Antiproliferative activity against human MDA-MB-231 cells assessed as inhibition of cell growth incubated for 48 hrs in presence of beta-glucuronidase by MTT assay; type: functional, cell-based; conditions: MDA-MB-231, 48 h
SK-OV-3 [8] = test: Antiproliferative activity against human SK-OV-3 cells assessed as inhibition of cell growth incubated for 48 hrs in presence of beta-glucuronidase by MTT assay; type: functional, cell-based; conditions: SK-OV-3, 48 h
MCF7 [9] = test: Antiproliferative activity against human MCF7 cells assessed as inhibition of cell growth incubated for 48 hrs in presence of beta-glucuronidase by MTT assay; type: functional, cell-based; conditions: MCF7, 48 h
[10] = Metabolic stability in rat liver microsomes assessed as half life at 10 mM measured up to 60 mins in presence of NADPH by LC-MS/MS analysis; type: ADME, Microsome
[11] = Metabolic stability in rat liver microsomes assessed as intrinsic clearance in microsomes at 10 mM measured up to 60 mins in presence of NADPH by LC-MS/MS analysis; type: ADME, Microsome; conditions: read-out: CLH
[12] = Metabolic stability in rat liver microsomes assessed as parent compound remaining at 10 mM measured up to 60 mins in presence of NADPH by LC-MS/MS analysis; type: ADME, Microsome; conditions: read-out: Stability
[13] = Acute toxicity in BALB/c mouse assessed as lethal dose administered intravenously as single dose and measured after 14 days; conditions: in vivo, route iv, time 14 day
[14] = Acute toxicity in BALB/c mouse assessed as animal survival at […], iv administered as single dose measured after 14 days; type: organism-based; conditions: in vivo, time 14 day
[15] = Toxicity in nude mouse xenografted with human MDA-MB-231 cells assessed as pathological changes in spleen at 20 to 40 mg/kg, iv administered every 2 days for 14 days by H and E staining based assay; type: organism-based; conditions: in vivo, 336 h, dose 20-40 mg/kg, time 14 day
[16] = Toxicity in nude mouse xenografted with human MDA-MB-231 cells assessed as pathological changes in kidney at 20 to 40 mg/kg, iv administered every 2 days for 14 days by H and E staining based assay; type: organism-based; conditions: in vivo, 336 h, dose 20-40 mg/kg, time 14 day
MDA-MB-231 [17] = test: Antitumor activity against mouse xenografted with human MDA-MB-231 cells assessed as increase in tumor necrosis area at 20 to 40 mg/kg, iv administered every 2 days for 14 days by H and E staining based assay; type: functional, organism-based; conditions: dose 20-40 mg/kg, time 14.0 day
[18] = Toxicity in nude mouse assessed as effect on total protein level in serum at 40 mg/kg, iv administered qd for 3 days (reference value: 47.3 g/L); type: organism-based; conditions: in vivo, 72 h, time 3 day
[19] = Toxicity in nude mouse assessed as effect on albumin level in serum at 40 mg/kg, iv administered qd for 3 days (reference value: 31.2 g/L); type: organism-based; conditions: in vivo, 72 h, time 3 day
[20] = Toxicity in nude mouse assessed as effect on globulin level in serum at 40 mg/kg, iv administered qd for 3 days (reference value: 16.1 g/L); type: organism-based; conditions: in vivo, 72 h, time 3 day
[21] = Toxicity in nude mouse assessed as ratio of effect on albumin level to effect on globulin level in serum at 40 mg/kg, iv administered qd for 3 days (reference value: 1.94); type: organism-based; conditions: in vivo, 72 h, time 3 day
[22] = Toxicity in nude mouse assessed as effect on alanine aminotransferase level in serum at 40 mg/kg, iv administered qd for 3 days (reference value: 308 U/L); type: organism-based; conditions: in vivo, 72 h, time 3 day
[23] = Toxicity in nude mouse assessed as effect on aspartate aminotransferase level in serum at 40 mg/kg, iv administered qd for 3 days (reference value: 424 U/L); type: organism-based; conditions: in vivo, 72 h, time 3 day
[24] = Toxicity in nude mouse assessed as ratio of effect on aspartate aminotransferase level […] level in serum at 40 mg/kg, iv administered qd for 3 days (reference value: 1.38); type: organism-based; conditions: in vivo, 72 h, time 3 day
[25] = Toxicity in nude mouse assessed as effect on total bilirubin level in serum at 40 mg/kg, iv administered qd for 3 days (reference value: 3.3 micromol/L); type: organism-based; conditions: in vivo, 72 h, time 3 day
[26] = Toxicity in nude mouse assessed as effect on alkaline phosphatase level in serum at 40 mg/kg, iv administered qd for 3 days (reference value: 66 U/L); type: organism-based; conditions: in vivo, 72 h, time 3 day
[27] = Toxicity in nude mouse assessed as effect on gamma-glutamyl transpeptidase level in serum at 40 mg/kg, iv administered qd for 3 days (Rvb < 2 U/L); type: organism-based; conditions: in vivo, 72 h, time 3 day
[28] = Toxicity in nude mouse assessed as effect on white blood cell count at 40 mg/kg, iv administered qd for 3 days (reference value: 0.02 10^9/L); type: organism-based; conditions: in vivo, 72 h, time 3 day
[29] = Toxicity in nude mouse assessed as effect on red blood cell count at 40 mg/kg, iv administered qd for 3 days (reference value: 0.21 10^12/L); type: organism-based; conditions: in vivo, 72 h, time 3 day
[30] = Toxicity in nude mouse assessed as effect on mean corpuscular hemoglobin level at 40 mg/kg, iv administered qd for 3 days (reference value: 22.3 pg); type: organism-based; conditions: in vivo, 72 h, time 3 day
[31] = Toxicity in nude mouse assessed as effect on mean corpuscular hemoglobin concentration at 40 mg/kg, iv administered qd for 3 days (reference value: 473 g/L); type: organism-based; conditions: in vivo, 72 h, time 3 day
[32] = Toxicity in nude mouse assessed as effect on neutrophil level at 40 mg/kg, iv administered qd for 3 days (reference value: 7.40 %); type: organism-based; conditions: in vivo, 72 h, time 3 day
[33] = Toxicity in nude mouse assessed as effect on eosinophil level at 40 mg/kg, iv administered qd for 3 days (reference value: 6 %); type: organism-based; conditions: in vivo, 72 h, time 3 day
[34] = Toxicity in nude mouse assessed as effect on lymphocyte level at 40 mg/kg, iv administered qd for 3 days (reference value: 60.90 %); type: organism-based; conditions: in vivo, 72 h, time 3 day
[35] = Cardiotoxicity in nude mouse assessed as abnormal spikes at 20 to 40 mg/kg, iv administered once daily for 3 days by ECG analysis; type: toxicity, organism-based; conditions: in vivo, 72 h, dose 20-40 mg/kg, time 3 day

Q: Which Activity [1] does the source give for COc1ccc([C@H]2[C@H](CO)C(=O)N2c2cc(OC)c(OC)c(OC)c2)cc1OCc1ccc(O[C@@H]2O[C@H](C(=O)O)[C@@H](O)[C@H](O)[C@H]2O)cc1 here?
A: Non-Toxic

Q: What about the Stability [2] of the same molecule?
A: Stable

Q: What about the Stability [3] of the same molecule?
A: Unstable

Q: What about the IC50 (MDA-MB-231 [4]) of the same molecule?
A: > 50000 nM

Q: And the IC50 (SK-OV-3 [5])?
A: > 50000 nM

Q: What about the IC50 (MCF7 [6]) of the same molecule?
A: > 50000 nM

Q: And the IC50 (HeLa)?
A: 8.9 nM

Q: What about the IC50 (MDA-MB-231 [7]) of the same molecule?
A: 11.7 nM

Q: What about the IC50 (SK-OV-3 [8]) of the same molecule?
A: 14.1 nM

Q: And the IC50 (MCF7 [9])?
A: 15.7 nM

Q: What about the half-life [10] of the same molecule?
A: > 2.42 h

Q: What about the microsomal CLint [11] of the same molecule?
A: < 9.6 µL/min/mg

Q: What about the remaining at 1 h [12] of the same molecule?
A: 74.9%

Q: And the LD50 at 336 h [13]?
A: > 500 mg/kg

Q: And the survival at 336 h [14]?
A: 75%

Q: And the Activity [15]?
A: Non-Toxic

Q: And the Activity [16]?
A: Non-Toxic

Q: What about the Activity (MDA-MB-231 [17]) of the same molecule?
A: Active

Q: What about the Activity [18] of the same molecule?
A: 45.5 g/L

Q: And the Activity [19]?
A: 29.5 g/L

Q: And the Activity [20]?
A: 16 g/L

Q: What about the Ratio [21] of the same molecule?
A: 1.84

Q: What about the Activity [22] of the same molecule?
A: 316 U/L

Q: And the Activity [23]?
A: 503 U/L

Q: And the Ratio [24]?
A: 1.59

Q: And the Activity [25]?
A: 3.9 µmol/L

Q: What about the Activity [26] of the same molecule?
A: 56 U/L

Q: And the Activity [27]?
A: < 2 U/L

Q: And the Activity [28]?
A: 0.12 10^9/L

Q: And the Activity [29]?
A: 0.31 10^12/L

Q: What about the Activity [30] of the same molecule?
A: 22.3 pg

Q: And the Activity [31]?
A: 512 g/L

Q: What about the Activity [32] of the same molecule?
A: 7.9%

Q: And the Activity [33]?
A: 6.2%

Q: And the Activity [34]?
A: 57.2%

Q: What about the Activity [35] of the same molecule?
A: Non-Toxic
